Assay results from a melting point compilation (Tetko et al.; mined from patent text by program, amines drawn as free bases though some values may be those of a salt).

First: CCc1cncnc1Nc1ccc(C(=O)CCC2CCN(Cc3ccccc3)CC2)cc1
Second: O=C(Nc1ccccc1)Nc1ncc(Oc2ccc(Cl)cc2)c(N2CCOCC2)n1
The melting point of the first is lower: 136 to 138 °C for the first, 229 to 231 °C for the second.

First: COc1cccc(CC(CS)C(=O)Nc2c[nH]c(C(=O)O)c2)c1 (stereo unspecified)
Second: CCOC(=O)NC1=NN(c2cccc(Cl)c2)C(=O)C1
The melting point of the first is lower: 153 to 158 °C for the first, 189 °C for the second.

Nc1nc2cccnc2c2c1nc(O)n2Cc1ccccc1 and Nc1ncnc2c1nc(OC(=O)OCc1ccccc1)n2Cc1ccccc1 cannot be ordered by melting point: > 250 °C for the first, > 300 °C for the second.

First: COc1ccc(C2=NN(C3CCN(c4ccc([N+](=O)[O-])cc4)CC3)C(=O)[C@@H]3CC=CC[C@H]23)cc1OC
Second: CCOc1ccc2c(c1)n(C1CCCCC1)c(=O)n2Cc1ccc(NC(=O)N(C)C)cc1OC
The melting point of the first is lower: 196 to 197 °C for the first, 250 °C for the second.

First: O=C1c2ccccc2C(=O)N1CCc1cccc(F)c1
Second: O=C1C(=O)c2ccccc2C2=C1SCC1(CCN(CC(O)Cc3ccccc3)CC1)O2 (stereo unspecified)
The melting point of the first is higher: 122 to 125 °C for the first, 82 to 84 °C for the second.

Compared with CC(=O)n1nc(C)c2ccccc21, Cn1nc(-c2ccccc2O)oc1=O is higher in melting point: 70 to 71 °C for the first, 160 to 162 °C for the second.

First: CCOC(=O)CNC(=O)c1nc2ccc(Cl)nn2n1
Second: CCOC(=O)c1cnc2nc3ccccc3n2c1O
The melting point of the first is lower: 175 to 177 °C for the first, 309 to 310 °C for the second.

First: Clc1cccc(-c2ccc3cnc(Nc4ccc(N5CCOCC5)nc4)nn23)c1
Second: COc1cc(Nc2ncc3c(n2)C(C)(c2ccccc2)CCC3)ccc1-n1cnc(C)c1 (stereo unspecified)
The melting point of the first is higher: 221 to 222 °C for the first, 207 to 209 °C for the second.

First: CC(=O)N1CCC(Oc2ccc(N(C)C)cc2)CC1
Second: CN(C)CCCc1ccc(OCCCNc2nc(N)nn2C)cc1
The melting point of the first is lower: 78 to 80 °C for the first, 112 to 114 °C for the second.

Compared with Cc1[nH]c(=O)[nH]c1C(=O)c1ccco1, Cc1cc(=O)c(OCc2ccccc2)c(C=O)o1 is lower in melting point: 214 to 216 °C for the first, 78 to 81 °C for the second.

First: O=c1cc(NCCN2CCC(c3noc4cc(F)ccc34)CC2)cn[nH]1
Second: Fc1cccc(Cc2cncnc2N2CCCC2)c1
The melting point of the first is higher: 97 to 99 °C for the first, 51 to 54 °C for the second.

First: COC(=O)C1CCC2C3CCC4CC(=O)CCC4(C)C3C(NC3CCCCC3)CC12C (stereo unspecified)
Second: CC(CCCO)C1CCC2C3CC=C4CC(OC5CCCCO5)CCC4(C)C3CCC12C (stereo unspecified)
The melting point of the first is lower: 93 to 94 °C for the first, 130 to 131 °C for the second.

Compared with CNc1nc(-c2cc3cccc(N(C)S(=O)(=O)c4cccs4)c3[nH]2)cs1, N#CC1=C(c2cccs2)Nc2n[nH]cc2C1c1ccccc1[N+](=O)[O-] (stereo unspecified) is higher in melting point: 162 to 163 °C for the first, 165 °C for the second.

CCCCn1c2c(c3cc(OC)c(OC)cc3c1=O)C(=O)c1cc3c(cc1-2)OCO3 and COc1cc(OC)c2[nH]c3c(C(=O)Nc4ccc(CCN(C)Cc5ccc(OC)c(OC)c5)cc4)cccc3c(=O)c2c1 cannot be ordered by melting point: 280 to 284 °C for the first, > 260 °C for the second.

First: CC(=O)Nc1cccc2c1SC(C)C2 (stereo unspecified)
Second: COC(=O)c1ccc(NC(C)=O)c(CC(=O)O)c1
The melting point of the first is lower: 125 to 127 °C for the first, 194 °C for the second.

First: COC(=O)c1cccc(/C=C/c2ccccc2)c1
Second: Nc1nonc1-c1nc2ccccc2n1CC(=O)C=Cc1ccccc1
The melting point of the first is lower: 108 to 109 °C for the first, 176 to 180 °C for the second.

First: CCCCCCCOc1ccc(C(=O)CCC(=O)OCC)cc1
Second: CCCCCCCC(=O)OCCCCCCOc1ccc(Nc2ccccc2)cc1
The melting point of the first is lower: 39.7 to 40.1 °C for the first, 42 to 43 °C for the second.

First: N#Cc1c(Cl)c2ccccc2[nH]c1=O
Second: Cc1nc(-c2ccccc2)[nH]c(=O)c1C
The melting point of the first is higher: > 250 °C for the first, 205 to 207 °C for the second.

First: Cc1nc2c(c3c1[nH]c1ccccc13)C(=O)CC(C)C2 (stereo unspecified)
Second: CCNC(=O)Nc1ccc2c(c1Cl)C(c1ccccc1F)=NCC(=O)N2C
The melting point of the first is higher: 218 to 219 °C for the first, 155 to 160 °C for the second.

First: O=C(CCN1CCN(c2cccc(C(F)(F)F)c2)CC1)c1ccc2oc3ccc(C(=O)CCN4CCN(c5cccc(C(F)(F)F)c5)CC4)cc3c(=O)c2c1
Second: O=S1(=O)c2ccccc2C(c2ccccc2)N1CCCN1CCN(c2ccc(F)cc2)CC1 (racemic)
The melting point of the first is lower: 166 to 167 °C for the first, 182 °C for the second.

Compared with COc1cccc2c1CCC[C@H]2NC(=O)c1cccc(Cl)c1O, COc1cc(N2CCN(C(=O)Cn3nc(C#N)c4cccnc43)CC2)ccc1Cl is higher in melting point: 175 to 176 °C for the first, 183 to 185 °C for the second.

First: Cn1c(=O)sc2cc(C(=O)CSCCC(=O)O)c(Cl)cc21
Second: CO[C@@H]1CN(CCCNc2nccc(=O)[nH]2)CC[C@@H]1NC(=O)c1cc(Cl)c(N)c2c1OC(C)(C)C2
The melting point of the first is lower: 120 to 121 °C for the first, 164 °C for the second.

Compared with CC(C)(C)C1=C(O)C(=O)c2ccccc2C1=O, CCOc1c(-c2ccc(N(C)C)c(O)c2)c(=O)c1=O is higher in melting point: 89 °C for the first, > 182 °C for the second.

First: CCOP(=O)(OCC)C(O)c1ccccc1 (stereo unspecified)
Second: CN(C)C(=O)CCC(=NNC(N)=S)c1ccccc1
The melting point of the first is lower: 83 to 83.5 °C for the first, 173 to 175 °C for the second.

First: COCCCNCc1ccc(-c2cc3ncnc(Nc4ccc5[nH]ccc5c4)c3s2)cc1
Second: COc1cccc(Nc2nc(-n3nc(C)cc3C)nc3ccccc23)c1
The melting point of the first is lower: 160 to 175 °C for the first, 193 to 195 °C for the second.

First: N#CN=C(Nc1cccnc1)NC(NC(=O)c1cccc(Cl)c1)C(F)(F)C(F)(F)F (stereo unspecified)
Second: Cc1cn(-c2ccc(NC(=O)c3ccc(C)c(Nc4nccc(-c5cccnc5)n4)c3)cc2C(F)(F)F)cn1
The melting point of the first is higher: 183 to 185 °C for the first, 154 to 163 °C for the second.

First: CS(=O)(=O)c1ccc(S(=O)(=O)N2CCCC(c3ccc(Cl)c(Cl)c3)=N2)cc1
Second: Cc1c(Cl)cc(-c2ccc(OC(=O)N3CCOCC3)nn2)cc1Cl
The melting point of the first is higher: 181 to 183 °C for the first, 155 to 159 °C for the second.

First: Cc1nc(-c2nn(Cc3ccccc3)c3ccccc23)oc1CO
Second: CCn1nc(-c2ccccc2)c(C(C)=O)c(Nc2ccc(Br)c3cccnc23)c1=O
The melting point of the first is lower: 127 to 129 °C for the first, 148 to 149 °C for the second.

First: Cc1noc(NS(=O)(=O)c2ccccc2-c2ccc(-c3ncco3)cc2CN(CC(F)(F)F)C(C)C)c1C
Second: CCNc1nc(-c2ccc(F)cc2C)c2ccc(=O)n(-c3ccccc3F)c2n1
The melting point of the first is lower: 80 to 90 °C for the first, 176 to 177 °C for the second.

First: O=C(c1cccs1)c1cccnc1N1CCCC1=O
Second: O=c1c(-c2ccccc2)cc(Cl)c2n1CCSc1ccsc1-2
The melting point of the first is lower: 148 to 150 °C for the first, 179 °C for the second.

First: CSc1nc(C(F)(F)F)c(Br)c(=O)[nH]1
Second: CS(=O)(=O)Nn1c(=O)[nH]c2cc(C(F)(F)F)c(CCCO)cc2c1=O
The melting point of the first is lower: 215 to 216 °C for the first, 243 to 247 °C for the second.

First: COc1cc(CNC(=S)NC(COC(=O)C(C)(C)C)Cc2ccc(C(C)(C)C)cc2)ccc1OCCN (stereo unspecified)
Second: CCCc1ccccc1OCCCCCOc1coc(C(=O)OC)cc1=O
The melting point of the first is higher: 63 to 65 °C for the first, 49 to 50 °C for the second.

First: Cn1cc(C2=C(c3cn(C)c4c([N+](=O)[O-])cccc34)C(=O)NC2=O)c2ccc(F)cc21
Second: Nc1cccc2c1CN(c1c(F)cc3c(=O)c(C(=O)O)cn(-c4ccc(F)cc4)c3c1F)C2
The melting point of the first is lower: 259 to 261 °C for the first, 269 to 274 °C for the second.

Compared with CNc1ccc(Oc2nc(OC)cc(OC)n2)c(C(=O)O)n1, CC(C)n1nc(-c2c(OCC(=O)O)nc(N)nc2-c2ccccc2)ccc1=O is higher in melting point: 172 to 174 °C for the first, 215 to 217 °C for the second.

First: COC(=O)C=Cc1ccc(OCCN(C)c2ccccn2)cc1
Second: COCCOC(=O)C1=C(C)Nc2nccn2C1c1ccccc1C(F)(F)F (stereo unspecified)
The melting point of the first is lower: 93 to 95 °C for the first, 181 to 182 °C for the second.

First: Cc1nnc(-c2cccc(-c3cnc4[nH]cc(C(=O)C5(C)CCCCC5)c4n3)c2)o1
Second: COCc1cnc2c(NC(=O)c3c(Cl)cccc3Cl)cc(C)cc2c1Cl
The melting point of the first is higher: 234 to 236 °C for the first, 156 to 158 °C for the second.

Compared with CCc1ccc2c(c1)C=Cc1cc(C)ccc1C2c1cn(Cc2ccc(C(=O)Nc3nnn[nH]3)o2)c(=O)[nH]c1=S (stereo unspecified), COc1ccc(Cn2cnc3c(-c4ccco4)nc(SC)nc32)cc1 is lower in melting point: 260 °C for the first, 147 to 148 °C for the second.

First: C=CCN1C2CCC3C1CCC2N3C(c1ccc(C(=O)N2CCCCC2)cc1)c1cccc(O)c1 (stereo unspecified)
Second: O=C(O)Cn1c(=O)c2ccccc2n(CCCCN2CCC(OC(c3ccccc3)c3ccccc3)CC2)c1=O
The melting point of the first is lower: 70 to 73 °C for the first, 184 to 186 °C for the second.

First: CC1=Nc2c(F)c(F)c(F)c(F)c2SN1
Second: CSc1nc(SC)nc(-n2c(C)nc3ccccc32)n1
The melting point of the first is higher: 290 to 291 °C for the first, 176 to 179 °C for the second.

First: N#CC(Cc1ccc(O)cc1)c1noc2cc(O)ccc12 (stereo unspecified)
Second: Oc1csc(Cc2n[nH]c3ccccc23)c1
The melting point of the first is higher: 214 °C for the first, 189 to 190 °C for the second.

CCC1CCCCN1CC(=O)NN=Cc1c(-c2ccccc2)nn2ccccc12 (stereo unspecified) and N#CC1(Nc2ccccc2)CCN([C@H]2CCc3ccccc32)CC1 cannot be ordered by melting point: 156 to 158 °C for the first, 157 to 160 °C for the second.

Compared with CCCn1cc2c(C3(F)C(=O)Nc4ccc(Br)cc43)ncnc2n1 (stereo unspecified), CC1COC2(c3ccccc3)c3cc(Cl)ccc3NC(=O)CN12 (stereo unspecified) is lower in melting point: 184 to 186 °C for the first, 84 to 98 °C for the second.

First: O=C(CCl)NCC1CCCCC1
Second: Cn1cc([N+](=O)[O-])c(C(=O)NC2CCCC2)n1
The melting point of the first is lower: 85 to 86 °C for the first, 176 to 177 °C for the second.

Compared with Cc1cccc(C)c1N1CCCN(c2c(C)cccc2C)C1=N, COc1ccc2c(c1)CN(c1ccc3sccc3c1)C2=O is higher in melting point: 68 to 71 °C for the first, 183 to 186 °C for the second.

First: O=Cc1c2ccccc2cc2cc(Cl)ccc12
Second: Cc1ccnc2ccc(C(=O)c3ccc(Cl)cc3)cc12
The melting point of the first is higher: 122 to 124 °C for the first, 114 °C for the second.

First: Nc1cc(O)nc2c(-c3ccncc3)c(-c3ccc(F)cc3)nn12
Second: CC1(C)CC(=C(c2ccc(O)cc2)c2ccc(-c3ccc(CO)cc3)cc2)CC(C)(C)C1
The melting point of the first is higher: > 250 °C for the first, 222 to 223 °C for the second.

Compared with C[C@@H](CSC(F)(F)C(F)F)[C@](O)(Cn1cncn1)c1ccc(Cl)cc1Cl, Cc1ccc(C(=O)Nc2ccc(CN3CCN(C)CC3)c(C(F)(F)F)c2)cc1C#Cc1ccc(NC2CCC2)nn1 is higher in melting point: 61 to 63 °C for the first, 120 to 121 °C for the second.

CC(C)(C)Nc1nc(C#N)c(C#N)nc1N and CCC1=C(C)C(=O)NC1=CBr cannot be ordered by melting point: > 250 °C for the first, 250 to 251 °C for the second.

First: CS(=O)(=O)Nn1c(=O)[nH]c2cc([N+](=O)[O-])c(N3CCOCC3)cc2c1=O
Second: O=[N+]([O-])c1ccc(S(=O)(=O)C2COCC2Br)cc1 (stereo unspecified)
The melting point of the first is higher: > 260 °C for the first, 155 to 157 °C for the second.

First: CC(C)c1ccc(C(Cl)=NOS(C)(=O)=O)cc1
Second: CCOC(=O)C(NC(=O)CNC=O)C(=O)OCC
The melting point of the first is lower: 79.5 to 82 °C for the first, 95 to 96 °C for the second.

O=C(O)[C@@H]1C[C@H]2C[C@@H](C=Cc3nsnc3O)CC[C@H]2CN1 (racemic) gave a melting point of 239 to 242 °C.
